ChEMBL document CHEMBL3885861, “Open TG-GATES”

Organism: Rattus norvegicus
Experiment: Open TG-GATES - Regimen: Single
Type: toxicity, organism-based, Sprague-Dawley
Design: regimen Single, gender Male, age 6 weeks
Settings: in vivo, po, 100 mg/kg, route gavage, dose level Low; for APTT / Bas / Eos / Fbg / Hb / Ht / Lym / MCH / MCHC / MCV / Mono / Neu / PT / Plat / RBC / Ret / WBC: tissue Blood; for KIDNEY_L / KIDNEY_R / KIDNEY_TOTAL: tissue Kidney; for LIVER: tissue Liver; for A/G / ALP / ALT / AST / BUN / CRE / Ca / Cl / DBIL / GLC / IP / K / LDH / Na / PL / RALB / TBIL / TC / TG / TP / gamma-GTP: tissue Plasma

Structure (SMILES): CCOC(=O)CCC(=O)O[C@H]1[C@H](O[C@@H]2[C@@H](C)[C@H](O[C@H]3C[C@@](C)(OC)[C@@H](O)[C@H](C)O3)[C@@H](C)C(=O)O[C@H](CC)[C@@](C)(O)[C@H](O)[C@@H](C)C(=O)[C@H](C)C[C@@]2(C)O)O[C@H](C)C[C@@H]1N(C)C [ERYTHROMYCIN ETHYLSUCCINATE]
- TERMINAL_BW (3 h): 214.5 g
- APTT (3 h): 22.9 s
- Bas (3 h): 0%
- Eos (3 h): 0.8%
- Fbg (3 h): 311.4 mg/dL
- Hb (3 h): 13.2 g/dL
- Ht (3 h): 39.7%
- Lym (3 h): 77.4%
- MCH (3 h): 21.4 pg
- MCHC (3 h): 33.2%
- MCV (3 h): 64.4 fL
- Mono (3 h): 2.6%
- Neu (3 h): 18.6%
- PT (3 h): 16.2 s
- Plat (3 h): 111.6 x10_4/uL
- RBC (3 h): 617.6 x10_4/ul
- Ret (3 h): 8.2%
- WBC (3 h): 78.3 x10_2/uL
- KIDNEY_L (3 h): 0.9 g
- KIDNEY_R (3 h): 1 g
- KIDNEY_TOTAL (3 h): 1.9 g
- LIVER (3 h): 9.9 g
- A/G (3 h): 1.2
- ALP (3 h): 1930.6 IU/L
- ALT (3 h): 47.6 IU/L
- AST (3 h): 78 IU/L
- BUN (3 h): 12.8 mg/dL
- CRE (3 h): 0.1 mg/dL
- Ca (3 h): 10.5 mg/dL
- Cl (3 h): 102.8 meq/L
- DBIL (3 h): 0.006 mg/dL
- GLC (3 h): 189.2 mg/dL
- IP (3 h): 9.1 mg/dL
- K (3 h): 3.8 meq/L
- LDH (3 h): 147.2 IU/L
- Na (3 h): 139.2 meq/L
- PL (3 h): 142.6 mg/dL
- RALB (3 h): 2.9 g/dL
- TBIL (3 h): 0.02 mg/dL
- TC (3 h): 73 mg/dL
- TG (3 h): 70.2 mg/dL
- TP (3 h): 5.5 g/dL
- gamma-GTP (3 h): 1 IU/L
- TERMINAL_BW (6 h): 213.8 g
- APTT (6 h): 22.8 s
- Bas (6 h): 0%
- Eos (6 h): 0.8%
- Fbg (6 h): 308 mg/dL
- Hb (6 h): 13.2 g/dL
- Ht (6 h): 39.8%
- Lym (6 h): 76.6%
- MCH (6 h): 20.9 pg
- MCHC (6 h): 33.1%
- MCV (6 h): 63.4 fL
- Mono (6 h): 2.6%
- Neu (6 h): 18.8%
- PT (6 h): 16 s
- Plat (6 h): 118.8 x10_4/uL
- RBC (6 h): 628 x10_4/ul
- Ret (6 h): 7.8%
- WBC (6 h): 108.5 x10_2/uL
- KIDNEY_L (6 h): 1 g
- KIDNEY_R (6 h): 1 g
- KIDNEY_TOTAL (6 h): 2 g
- LIVER (6 h): 9.2 g
- A/G (6 h): 1.1
- ALP (6 h): 1420.4 IU/L
- ALT (6 h): 40.2 IU/L
- AST (6 h): 72 IU/L
- BUN (6 h): 12 mg/dL
- CRE (6 h): 0.2 mg/dL
- Ca (6 h): 10.5 mg/dL
- Cl (6 h): 104 meq/L
- DBIL (6 h): 0 mg/dL
- GLC (6 h): 187.6 mg/dL
- IP (6 h): 9.5 mg/dL
- K (6 h): 4.2 meq/L
- LDH (6 h): 182 IU/L
- Na (6 h): 138 meq/L
- PL (6 h): 132.2 mg/dL
- RALB (6 h): 2.8 g/dL
- TBIL (6 h): 0.02 mg/dL
- TC (6 h): 69.8 mg/dL
- TG (6 h): 63.4 mg/dL
- TP (6 h): 5.3 g/dL
- gamma-GTP (6 h): 1.2 IU/L
- TERMINAL_BW (9 h): 216.4 g
- APTT (9 h): 23.3 s
- Bas (9 h): 0%
- Eos (9 h): 1%
- Fbg (9 h): 315 mg/dL
- Hb (9 h): 13.3 g/dL
- Ht (9 h): 40.4%
- Lym (9 h): 80.4%
- MCH (9 h): 21.5 pg
- MCHC (9 h): 33%
- MCV (9 h): 65 fL
- Mono (9 h): 2%
- Neu (9 h): 15.8%
- PT (9 h): 15.6 s
- Plat (9 h): 121.2 x10_4/uL
- RBC (9 h): 622 x10_4/ul
- Ret (9 h): 8%
- WBC (9 h): 73.2 x10_2/uL
- KIDNEY_L (9 h): 1 g
- KIDNEY_R (9 h): 1.1 g
- KIDNEY_TOTAL (9 h): 2.1 g
- LIVER (9 h): 9.2 g
- A/G (9 h): 1.2
- ALP (9 h): 1398.8 IU/L
- ALT (9 h): 32.4 IU/L
- AST (9 h): 64 IU/L
- BUN (9 h): 12.4 mg/dL
- CRE (9 h): 0.1 mg/dL
- Ca (9 h): 10.6 mg/dL
- Cl (9 h): 105.4 meq/L
- DBIL (9 h): 0 mg/dL
- GLC (9 h): 188.8 mg/dL
- IP (9 h): 9.5 mg/dL
- K (9 h): 4.2 meq/L
- LDH (9 h): 145.6 IU/L
- Na (9 h): 138.6 meq/L
- PL (9 h): 136 mg/dL
- RALB (9 h): 3 g/dL
- TBIL (9 h): 0.012 mg/dL
- TC (9 h): 78.2 mg/dL
- TG (9 h): 87.4 mg/dL
- TP (9 h): 5.5 g/dL
- gamma-GTP (9 h): 1.4 IU/L
- TERMINAL_BW (24 h): 222.7 g
- APTT (24 h): 21.4 s
- Bas (24 h): 0%
- Eos (24 h): 0.8%
- Fbg (24 h): 326.2 mg/dL
- Hb (24 h): 13.8 g/dL
- Ht (24 h): 41.6%
- Lym (24 h): 86.4%
- MCH (24 h): 20.6 pg
- MCHC (24 h): 33.2%
- MCV (24 h): 62.2 fL
- Mono (24 h): 3%
- Neu (24 h): 8.2%
- PT (24 h): 16 s
- Plat (24 h): 122.9 x10_4/uL
- RBC (24 h): 670 x10_4/ul
- Ret (24 h): 6.7%
- WBC (24 h): 102.3 x10_2/uL
- KIDNEY_L (24 h): 0.9 g
- KIDNEY_R (24 h): 1 g
- KIDNEY_TOTAL (24 h): 1.9 g
- LIVER (24 h): 9.5 g
- A/G (24 h): 1.3
- ALP (24 h): 1407.8 IU/L
- ALT (24 h): 43.4 IU/L
- AST (24 h): 70.4 IU/L
- BUN (24 h): 14 mg/dL
- CRE (24 h): 0.1 mg/dL
- Ca (24 h): 10.6 mg/dL
- Cl (24 h): 106.6 meq/L
- DBIL (24 h): 0.002 mg/dL
- GLC (24 h): 200.6 mg/dL
- IP (24 h): 7.7 mg/dL
- K (24 h): 4.1 meq/L
- LDH (24 h): 183.2 IU/L
- Na (24 h): 142.4 meq/L
- PL (24 h): 140.4 mg/dL
- RALB (24 h): 3.1 g/dL
- TBIL (24 h): 0.03 mg/dL
- TC (24 h): 83 mg/dL
- TG (24 h): 71.6 mg/dL
- TP (24 h): 5.5 g/dL
- gamma-GTP (24 h): 1.4 IU/L
